Columns and labels:
Type in all cases: cell-based, human
[1] = system: Jurkat cells; test: Toxicity and growth inhibition assays (cell counts on days 3, 5 and 15)
Procedure: For cell culture studies, But4ManNAc (1) (50) was used as a mixture of anomers (α/β=10/90), But4GlcNAc (2) as pure α-anomer and But5Man (3) as pure β-anomer (It is noteworthy that the intracellular hydrolysis of butyrate esters makes the anomeric configuration less relevant in these studies and we found similar cellular effects between the α- and β-anomers in long term toxicity). Stock solutions of the sugar analogs were made in ethanol at concentrations of 10 mM and 50 mM. In the case of cells growing in suspension the solutions of 1-4 (or an ethanol control at an equivalent volume) were coated onto dishes and the ethanol was allowed to evaporate prior to plating. Unless otherwise noted, throughout this study Jurkat cells (Clone E-6, ATCC, Manassas, Va.) were cultured in RPMI 1640 medium supplemented with 300 mg/L glutamine, 5.0% fetal bovine serum (HyClone, Logan, Utah) and 1.0% of a 100× dilution of a pen/strep stock solution containing penicillin (100 units/mL) and streptomycin (100 μg/mL); HL-60 cells (ATCC, Manassas, Va.) were cultured in RPMI 1640 medium supplemented with 10% FBS and pen/strep; and AD293 (HEK) cells (Stratagene, La Jolla, Calif.) were grown in DMEM medium with 10% FBS and pen/strep. In all cases, cells were incubated in a standard 37° C. in a 5.0% CO2, water-saturated environment. Cell counting was performed with a Beckman-Coulter Z2 particle counter and hemacytometer.
Solutions of the analogs in EtOH (10 mM stock) were coated onto 24-well plates at a range of concentrations from 0-320 μM and ethanol was allowed to evaporate. Jurkat cells (1.0×10^5 cells) in 0.5 mL of medium were plated in each well (day 0). On days 3 and 5, fresh medium (1.0 mL) was added to each well. Cell cultures were mixed by gentle pipetting and 100 μL of cell suspension was taken from each well and counted. On days 7, 9, 11, 13 and 15, 1.0 mL of cell suspension was removed from each well after thorough mixing and fresh medium (1.0 mL) was added. Cells were counted on day 15 and the cell density was plotted as a percentage of control (as was done for cell counts from days 3 and 5).

[2] = system: p21WAF1/Cip1 promoter; test: Luc-p21WAF1/Cip1 luciferase reporter gene assay in AD293 (HEK) cells
Procedure: The plasmid Luc-p21^Cip1/WAF1 (a gift from Vogelstein Laboratory, JHMI, Baltimore, Md.) was amplified and purified utilizing a plasmid maxi kit (Cat. No. 12163. Qiagen, Valencia, Calif.) following the manufacturer's protocol. HEK cells (2.5×10^5) were seeded in 3.0 mL medium and grown in 6-well T. C. plates. Transfection was performed using lipofectamine 2000 (Cat. No. 11668-019, Invitrogen, Carlsbad, Calif.) following the protocol supplier's protocol. Cells were trypsinized 24 h after transfection and seeded at 250,000 cells per well with concentrations of 1-4 shown in FIG. 3a or 1, 5, and ManNAc plus 5 at the concentrations shown in FIG. 3c. After 72 h, the cells were trypsinized, counted and lysed in 300 μL of luciferase cell culture lysis buffer and diluted five-fold in the same buffer. Luminometry was performed utilizing the ‘Luciferase Assay System’ (Cat. No. 1500, 4550, Promega, Madison, Wis.) following supplier's protocol. Luciferase Assay Reagent (100 μL) was added to the cell lysate (20 μL) in luminometer tubes (Cat. No. 55.476, Sarstedt, Newton, N.C.) and the luminescence was measured immediately using a Berthold Sirius Luminometer. The final values were normalized relative to ethanol-treated controls and reported on a per cell basis.

[3] = system: Jurkat cells; test: Flow cytometry analysis of cell cycle status (PI/RNase A)
Procedure: The cell cycle arrest induced by butyrate analogs was studied following the standard protocol (49). Briefly, Jurkat cells (2.3×10^5 cells/mL) were incubated with various concentrations of 1 (0, 25, 50, 75, 100, 150 and 200 μM); 2 (200 μM); 3 (200 μM); and 4 (200 μM) for five days. The cells were then harvested, counted, washed twice with PBS, re-suspended in PBS (500 μL), added to a cold solution of 78% aqueous ethanol (4.5 mL) using a glass Pasteur pipette and kept at 2.0° C. for at least 24 h. The fixed cells were centrifuged twice to remove the ethanol completely, re-suspended in propidium iodide (PI)/ribonuclease A (RNase A) staining buffer (BD Pharmingen, Catalog No. 550825, San Diego, Calif.) (500 μL for 1.0×10^6 cells), incubated at 37° C. for 15 min and analyzed by flow cytometry. The cellular aggregates were excluded from single cell populations using an area-width plot (FL2—PT fluorescence) for the cell cycle status determination. At least 10,000 gated events were counted for each determination.
Jurkat cells (2.5×10^5 cells/mL) were incubated with either ethanol (0.2%) or 1 (100 μM or 200 μM). Aliquots of cell suspensions were taken on day 0 and days 2-6, washed with PBS (twice) and fixed in 75% ethanol at 2.0° C. for at least 48 h. The cells were stained with PI/RNase staining buffer and analyzed by flow cytometry as given above.

[4] = system: caspase-3 activity; test: Caspase-3 activity assay in Jurkat cells; conditions: for increase of caspase-3 activity: 48 h
Excerpt: Such results are consistent with those expected by the compounds herein.

[5] = system: sialic acid biosynthesis in Jurkat cells; test: Assay for total sialic acid production (periodate-resorcinol); conditions: three days
Procedure: Jurkat cells (5.0×10^6 cells in 10 mL medium) were incubated with 1-5 at various concentrations. […] The cell lysates were analyzed by using an adapted version of the periodate-resorcinol assay (36, 59) with the periodic acid oxidation step performed on ice to allow quantification of total (i.e., free monosaccharide plus glycoconjugate-bound) sialic acid. For each assay, a standard curve was obtained using N-acetylneuraminic acid (Pfanstiehl, Waukegan, Ill.) for calibration.

CCCC(=O)OC[C@H]1OC(OC(=O)CCC)[C@@H](NC(C)=O)[C@@H](OC(=O)CCC)[C@@H]1OC(=O)CCC (stereo partly drawn) [compound 1, 2-Acetylamino-2-deoxy-1,3,4,6-tetra-O-butanoyl-α,β-D-mannopyranoside]
long term growth characteristics (day 15) ([1]; Jurkat cells, 0-320 μM, day 15): induces both growth arrest and cell death
concentration at which essentially all cells died by day 15 ([1]; Jurkat cells, day 15): ≥ 80 µM
range for bioactivity ([1]; ManNAc and butyrate combined in the same molecule): 50 to 100 µM
concentration level required for p21WAF1/Cip1 activation [2]: micromolar level efficiency
gain in efficiency for 1 over 5, relative to the ~10× of the endogenous p21 assay ([2]; luc-p21WAF1/Cip reporter assay): even greater
cell cycle status at lower concentrations ([3]; Jurkat cells, 0-75 μM, 5 days): stepwise decrease in G0/G1 accumulation with a concomitant increase in cells at the G2/M stage
population of apoptotic cells (DNA content) ([3]; Jurkat cells, 0-200 μM, five days): dose dependent increase in population of apoptotic cells
cell cycle status, time course ([3]; Jurkat cells, 100 μM, until day 6): strong cell cycle inhibition at the G2/M stage
cell cycle status, time course ([3]; Jurkat cells, 200 μM): accumulated more rapidly at the G2/M stage
cell cycle status / apoptosis ([3]; Jurkat cells, 200 μM, 5 days): majority of cells treated with 1 appeared to be apoptotic
cells with DNA in the sub G0 range ([3]; Jurkat cells, 200 μM, day 4): substantial proportion
cells with DNA in the sub G0 range ([3]; Jurkat cells, 200 μM, day 6): almost complete
concentration above which non-viable cells (sub G0) accumulated ([3]; Jurkat cells, 5 days): exceeded 75 μM
apoptosis versus cell cycle arrest (summary) ([3]; human cancer cells): efficiently induced apoptosis
apoptosis by caspase-3 activity assay [4]: dose dependent apoptosis
increase of caspase-3 activity ([4]; 25 μM): ~4 fold
increase of caspase-3 activity ([4]; 50 μM): ~8 fold
increase of caspase-3 activity ([4]; 100 μM): ~14 fold
total sialic acid [5]: large increase in total sialic acid

Source: US9315532B2, “Fatty acid carbohydrate hybrid molecules as therapeutic agents and methods thereof” (The Johns Hopkins University, priority 2005, dated 2016)
